In brackets after ≈: the same amount, converted by molar mass. Bridge positions count the residues as written; N and C are the ends. Square brackets hold non-standard residues; d marks the D form. Peptide text beside a SMILES is read from it. * marks the point of attachment. X1 = CC[C@H](C)CCCCC(=O)*; Dab = NCC[C@H](N)C(=O)O
Key:
[1] = tested on: Staphylococcus aureus; assay: Antimicrobial activity against Staphylococcus aureus ATCC 25923 assessed as reduction in bacterial growth by broth dilution method; assay type: functional
[2] = tested on: Staphylococcus aureus; assay: Antimicrobial activity against multi-drug resistant Staphylococcus aureus assessed as reduction in bacterial growth by broth dilution method; assay type: functional
[3] = tested on: Staphylococcus epidermidis; assay: Antimicrobial activity against multi-drug resistant Staphylococcus epidermidis assessed as reduction in bacterial growth by broth dilution method; assay type: functional
[4] = tested on: Enterococcus faecalis; assay: Antimicrobial activity against multi-drug resistant Enterococcus faecalis assessed as reduction in bacterial growth by broth dilution method; assay type: functional
[5] = tested on: Escherichia coli; assay: Antimicrobial activity against Escherichia coli ATCC 25922 assessed as reduction in bacterial growth by broth dilution method; assay type: functional
[6] = tested on: Escherichia coli; assay: Antimicrobial activity against multi-drug resistant Escherichia coli assessed as reduction in bacterial growth by broth dilution method; assay type: functional
[7] = tested on: Klebsiella pneumoniae; assay: Antimicrobial activity against multi-drug resistant Klebsiella pneumoniae assessed as reduction in bacterial growth by broth dilution method; assay type: functional
[8] = tested on: Acinetobacter baumannii; assay: Antimicrobial activity against multi-drug resistant Acinetobacter baumannii assessed as reduction in bacterial growth by broth dilution method; assay type: functional
[9] = Hemolytic activity in human Red blood cell assessed as hemolysis incubated for 1 hrs by microplate reader based analysis; assay type: toxicity; details: erythrocyte
[10] = tested on: BEAS-2B; assay: Cytotoxicity against human BEAS-2B cells at 2 to 256 uM measured after 24 hrs by CCK-8 method; assay type: toxicity, cell-based; details: dose 2-256 µM
[11] = tested on: HEK-293T; assay: Cytotoxicity against HEK293T cells at 2 to 256 uM measured after 24 hrs by CCK-8 method; assay type: toxicity, cell-based; details: human, dose 2-256 µM
[12] = tested on: L02; assay: Cytotoxicity against human LO2 cells at 2 to 256 uM measured after 24 hrs by CCK-8 method; assay type: toxicity, cell-based; details: l02, 24 h, dose 2-256 µM

CC(C)C[C@H](NC(=O)[C@H](CCCCN)NC(=O)[C@H](CC(C)C)NC(=O)[C@H](CCCCN)NC(=O)[C@H](Cc1ccccc1)NC(=O)[C@@H]1CCCN1C(=O)[C@H](Cc1c[nH]c2ccccc12)NC(=O)[C@H](Cc1c[nH]c2ccccc12)NC(=O)[C@H](Cc1c[nH]c2ccccc12)NC(=O)[C@@H]1CCCN1C(=O)[C@H](Cc1ccccc1)NC(=O)[C@H](CCCCN)NC(=O)[C@H](CC(C)C)NC(=O)[C@H](CCCCN)NC(=O)[C@H](CC(C)C)NC(=O)[C@@H](N)CCCCN)C(=O)N[C@@H](CCCCN)C(N)=O (H-KLKLKFPWWWPFKLKLK-NH2)
MIC [1]: 8 µM (≈ 18.3 µg/mL) | MIC [2]: 4 µM (≈ 9.14 µg/mL) | MIC [3]: 4 µM (≈ 9.14 µg/mL) | MIC [4]: 8 µM (≈ 18.3 µg/mL) | MIC [5]: 8 µM (≈ 18.3 µg/mL) | MIC [6]: 8 µM (≈ 18.3 µg/mL) | MIC [7]: 8 µM (≈ 18.3 µg/mL) | MIC [8]: 8 µM (≈ 18.3 µg/mL) | HC10 [9]: 38.84 µM

CC(C)[C@H](NC(=O)[C@H](CCCCN)NC(=O)[C@@H](NC(=O)[C@H](CCCCN)NC(=O)[C@@H]1CCCN1C(=O)[C@H](Cc1c[nH]c2ccccc12)NC(=O)[C@H](Cc1c[nH]c2ccccc12)NC(=O)[C@H](Cc1c[nH]c2ccccc12)NC(=O)[C@@H]1CCCN1C(=O)[C@H](CCCCN)NC(=O)[C@@H](NC(=O)[C@H](CCCCN)NC(=O)[C@@H](NC(=O)[C@@H](N)CCCCN)C(C)C)C(C)C)C(C)C)C(=O)N[C@@H](CCCCN)C(N)=O (H-KVKVKPWWWPKVKVK-NH2)
MIC [1]: 64 µM (≈ 124 µg/mL) | MIC [2]: 64 µM (≈ 124 µg/mL) | MIC [3]: 32 µM (≈ 61.9 µg/mL) | MIC [4]: 32 µM (≈ 61.9 µg/mL) | MIC [5]: 32 µM (≈ 61.9 µg/mL) | MIC [6]: 32 µM (≈ 61.9 µg/mL) | MIC [7]: 32 µM (≈ 61.9 µg/mL) | MIC [8]: 64 µM (≈ 124 µg/mL) | HC10 [9]: > 256 µM

NCCCC[C@H](NC(=O)[C@H](Cc1c[nH]c2ccccc12)NC(=O)[C@H](CCCCN)NC(=O)[C@H](Cc1c[nH]c2ccccc12)NC(=O)[C@H](Cc1ccccc1)NC(=O)[C@@H]1CCCN1C(=O)[C@H](Cc1c[nH]c2ccccc12)NC(=O)[C@H](Cc1c[nH]c2ccccc12)NC(=O)[C@H](Cc1c[nH]c2ccccc12)NC(=O)[C@@H]1CCCN1C(=O)[C@H](Cc1ccccc1)NC(=O)[C@H](Cc1c[nH]c2ccccc12)NC(=O)[C@H](CCCCN)NC(=O)[C@H](Cc1c[nH]c2ccccc12)NC(=O)[C@@H](N)CCCCN)C(N)=O (H-KWKWFPWWWPFWKWK-NH2)
MIC [1]: 4 µM (≈ 9.29 µg/mL) | MIC [2]: 4 µM (≈ 9.29 µg/mL) | MIC [3]: 16 µM (≈ 37.1 µg/mL) | MIC [4]: 16 µM (≈ 37.1 µg/mL) | MIC [5]: 32 µM (≈ 74.3 µg/mL) | MIC [6]: 64 µM (≈ 149 µg/mL) | MIC [7]: 256 µM (≈ 594 µg/mL) | MIC [8]: 64 µM (≈ 149 µg/mL) | HC10 [9]: 7.46 µM

NCCCC[C@H](NC(=O)[C@H](Cc1c[nH]c2ccccc12)NC(=O)[C@H](CCCCN)NC(=O)[C@H](Cc1c[nH]c2ccccc12)NC(=O)[C@H](CCCCN)NC(=O)[C@H](Cc1ccccc1)NC(=O)[C@@H]1CCCN1C(=O)[C@H](Cc1c[nH]c2ccccc12)NC(=O)[C@H](Cc1c[nH]c2ccccc12)NC(=O)[C@H](Cc1c[nH]c2ccccc12)NC(=O)[C@@H]1CCCN1C(=O)[C@H](Cc1ccccc1)NC(=O)[C@H](CCCCN)NC(=O)[C@H](Cc1c[nH]c2ccccc12)NC(=O)[C@H](CCCCN)NC(=O)[C@H](Cc1c[nH]c2ccccc12)NC(=O)[C@@H](N)CCCCN)C(N)=O (H-KWKWKFPWWWPFKWKWK-NH2)
MIC [1]: 4 µM (≈ 10.3 µg/mL) | MIC [2]: 8 µM (≈ 20.6 µg/mL) | MIC [3]: 8 µM (≈ 20.6 µg/mL) | MIC [4]: 8 µM (≈ 20.6 µg/mL) | MIC [5]: 8 µM (≈ 20.6 µg/mL) | MIC [6]: 4 µM (≈ 10.3 µg/mL) | MIC [7]: 8 µM (≈ 20.6 µg/mL) | MIC [8]: 8 µM (≈ 20.6 µg/mL) | HC10 [9]: 2.1 µM

NCCCC[C@H](NC(=O)[C@H](Cc1c[nH]c2ccccc12)NC(=O)[C@H](CCCCN)NC(=O)[C@H](Cc1c[nH]c2ccccc12)NC(=O)[C@H](CCCCN)NC(=O)[C@@H]1CCCN1C(=O)[C@H](Cc1c[nH]c2ccccc12)NC(=O)[C@H](Cc1c[nH]c2ccccc12)NC(=O)[C@H](Cc1c[nH]c2ccccc12)NC(=O)[C@@H]1CCCN1C(=O)[C@H](CCCCN)NC(=O)[C@H](Cc1c[nH]c2ccccc12)NC(=O)[C@H](CCCCN)NC(=O)[C@H](Cc1c[nH]c2ccccc12)NC(=O)[C@@H](N)CCCCN)C(N)=O (H-KWKWKPWWWPKWKWK-NH2)
MIC [1]: 4 µM (≈ 9.14 µg/mL) | MIC [2]: 4 µM (≈ 9.14 µg/mL) | MIC [3]: 4 µM (≈ 9.14 µg/mL) | MIC [4]: 4 µM (≈ 9.14 µg/mL) | MIC [5]: 4 µM (≈ 9.14 µg/mL) | MIC [6]: 4 µM (≈ 9.14 µg/mL) | MIC [7]: 4 µM (≈ 9.14 µg/mL) | MIC [8]: 4 µM (≈ 9.14 µg/mL) | HC10 [9]: 64.03 µM

NCCCC[C@H](NC(=O)[C@H](Cc1c[nH]c2ccccc12)NC(=O)[C@H](CCCCN)NC(=O)[C@H](Cc1c[nH]c2ccccc12)NC(=O)[C@@H]1CCCN1C(=O)[C@H](Cc1c[nH]c2ccccc12)NC(=O)[C@H](Cc1c[nH]c2ccccc12)NC(=O)[C@H](Cc1c[nH]c2ccccc12)NC(=O)[C@@H]1CCCN1C(=O)[C@H](Cc1c[nH]c2ccccc12)NC(=O)[C@H](CCCCN)NC(=O)[C@H](Cc1c[nH]c2ccccc12)NC(=O)[C@@H](N)CCCCN)C(N)=O (H-KWKWPWWWPWKWK-NH2)
MIC [1]: 2 µM (≈ 4.05 µg/mL) | MIC [2]: 2 µM (≈ 4.05 µg/mL) | MIC [3]: 2 µM (≈ 4.05 µg/mL) | MIC [4]: 2 µM (≈ 4.05 µg/mL) | MIC [5]: 8 µM (≈ 16.2 µg/mL) | MIC [6]: 4 µM (≈ 8.11 µg/mL) | MIC [7]: 16 µM (≈ 32.4 µg/mL) | MIC [8]: 4 µM (≈ 8.11 µg/mL) | HC10 [9]: 10.37 µM

NCCCC[C@H](NC(=O)[C@H](Cc1c[nH]c2ccccc12)NC(=O)[C@H](CCCCN)NC(=O)[C@H](Cc1ccccc1)NC(=O)[C@@H]1CCCN1C(=O)[C@H](Cc1c[nH]c2ccccc12)NC(=O)[C@H](Cc1c[nH]c2ccccc12)NC(=O)[C@H](Cc1c[nH]c2ccccc12)NC(=O)[C@@H]1CCCN1C(=O)[C@H](Cc1ccccc1)NC(=O)[C@H](CCCCN)NC(=O)[C@H](Cc1c[nH]c2ccccc12)NC(=O)[C@H](CCCCN)NC(=O)[C@@H](N)Cc1c[nH]c2ccccc12)C(=O)N[C@@H](Cc1c[nH]c2ccccc12)C(N)=O (H-WKWKFPWWWPFKWKW-NH2)
MIC [1]: 8 µM (≈ 18.6 µg/mL) | MIC [2]: 16 µM (≈ 37.1 µg/mL) | MIC [3]: 16 µM (≈ 37.1 µg/mL) | MIC [4]: 16 µM (≈ 37.1 µg/mL) | MIC [5]: 128 µM (≈ 297 µg/mL) | MIC [6]: 128 µM (≈ 297 µg/mL) | MIC [7]: 256 µM (≈ 594 µg/mL) | MIC [8]: 16 µM (≈ 37.1 µg/mL) | HC10 [9]: 6.82 µM

NCCCC[C@H](NC(=O)[C@H](Cc1c[nH]c2ccccc12)NC(=O)[C@H](CCCCN)NC(=O)[C@@H]1CCCN1C(=O)[C@H](Cc1c[nH]c2ccccc12)NC(=O)[C@H](Cc1c[nH]c2ccccc12)NC(=O)[C@H](Cc1c[nH]c2ccccc12)NC(=O)[C@@H]1CCCN1C(=O)[C@H](CCCCN)NC(=O)[C@H](Cc1c[nH]c2ccccc12)NC(=O)[C@H](CCCCN)NC(=O)[C@@H](N)Cc1c[nH]c2ccccc12)C(=O)N[C@@H](Cc1c[nH]c2ccccc12)C(N)=O (H-WKWKPWWWPKWKW-NH2)
MIC [1]: 4 µM (≈ 8.11 µg/mL) | MIC [2]: 4 µM (≈ 8.11 µg/mL) | MIC [3]: 2 µM (≈ 4.05 µg/mL) | MIC [4]: 2 µM (≈ 4.05 µg/mL) | MIC [5]: 8 µM (≈ 16.2 µg/mL) | MIC [6]: 8 µM (≈ 16.2 µg/mL) | MIC [7]: 8 µM (≈ 16.2 µg/mL) | MIC [8]: 8 µM (≈ 16.2 µg/mL) | HC10 [9]: 28.58 µM

CC(C)CCCCC(=O)N[C@@H](CCN)C(=O)N[C@H](C(=O)N[C@@H](CCN)C(=O)N[C@H]1CCNC(=O)[C@H]([C@@H](C)O)NC(=O)[C@H](CCN)NC(=O)[C@H](CCN)NC(=O)[C@H](CC(C)C)NC(=O)[C@@H](Cc2ccccc2)NC(=O)[C@H](CCN)NC1=O)[C@@H](C)O.CC[C@H](C)CCCCC(=O)N[C@@H](CCN)C(=O)N[C@H](C(=O)N[C@@H](CCN)C(=O)N[C@H]1CCNC(=O)[C@H]([C@@H](C)O)NC(=O)[C@H](CCN)NC(=O)[C@H](CCN)NC(=O)[C@H](CC(C)C)NC(=O)[C@@H](Cc2ccccc2)NC(=O)[C@H](CCN)NC1=O)[C@@H](C)O (X1-[Dab]T[Dab][Dab][Dab][dF]L[Dab][Dab]T; lactam 4-C)
HC10 [9]: > 256 µM | Activity [10]: Non-toxic | Activity [11]: Non-toxic | Activity [12]: Non-toxic
